Tested on: SOD1 G93A transgenic mice (ALS model mice)
Experiment: ALS model mice, continuous intracerebroventricular administration (rotarod onset, survival, motor neuron count)
Format: in vivo, mouse
Protocol: Wild-type mice (C57BL/6) and SOD1 G93A transgenic mice (G1L/+ line, backcrossed to C57BL/6) were purchased from The Jackson Laboratory, and were then mated and/or bred. All assays were carried out using only male mice.
Using Brain infusion kit 3 (Alzet) and an osmotic pump (Model 2006, Alzet), the compound was continuously administered into the cerebral ventricle of the SOD1 G93A transgenic mice (average onset: 28.1+1.3-week-old (Nishitoh et al., Genes Dev 22, 1451-1464, 2008)), from the time at which the mice were 22 weeks old (0.15 μL/h, 6 weeks/pump). As a preparation stage, 50% DMSO/PBS or each compound was filled into the pump, and was then immersed in 0.9% NaCl, so that priming was carried out 37° C. for 60 hours or more. Upon installation of the pump, the mice were anesthetized by intraperitoneal administration of 0.01 μL/g xylazine (1 mg/ml, Sigma) and 0.007 μL/g Pentobarbital Sodium Salt (5.4 mg/ml, Nacalai). The head portion of each mouse was dehaired, and the mouse was then fixed on a stereotaxic instrument equipped with a manipulator (NARISHIGE). Thereafter, the skin was cut, and the skull was exposed. The coordinate of Bregma was set at 0, and the position that was 1.1 mm to the right, 0.5 mm backward, and 2.5 mm downward was set at the coordinate of the administered cerebral ventricle. The pump was arranged under the dorsal skin, a cannula was then fixed using an adhesive, and the skin on the head portion of the mouse was closed using the adhesive. The pump was exchanged with a new one every 6 weeks, until it became difficult to perform surgery due to the onset of the pathologic conditions of ALS. Upon the exchange of the pump, the mouse was anesthetized, using 4% Isoflurane (Wako Pure Chemical Industries, Ltd.) for introduction, and 2% Isoflurane for maintenance. The dorsal surface of the pump-inserted site was dehaired, and the skin was excised to remove the pump. The removed pump was exchanged with a new pump that had previously been filled with 50% DMSO/PBS or each compound. After the exchange of the pump, the excised skin was closed with Wound clip (Alzet).
From the week at which the mice became 25 weeks old, motor function was measured three times a week according to a rotarod test. ROTA-ROD (Muromachi Kikai Co., Ltd.) was set at a reached rotation speed of 40 rpm and an acceleration time of 180 seconds. The period of time required until the target mouse was fallen during 300 seconds at longest was recorded. An interval of 180 seconds was provided between two trials. Two measurements were carried out in each trial, and better results were determined to be the results of the day. An average value in a week was calculated. […]

C=CCN(C(=O)c1sc2nc(-c3cccnc3)ccc2c1N)c1ccccc1 [Example 1, N-allyl-3-amino-N-phenyl-6-(3-pyridinyl)thieno[2,3-b]pyridine-2-carboxamide]
Effects on model mice (SOD1 G93A transgenic mice): Significant effects | number of motor neurons in spinal cord (Nissl staining) (SOD1 G93A transgenic mice, 31 weeks old, lumbar cord anterior horn, vs DMSO group, FIG. 11, 12): the number of motor neurons was significantly high | period of time required until the onset of the pathologic conditions (Onset), rotarod test (male SOD1 G93A transgenic mice, 3 mM continuous i.c.v. by osmotic pump from 22 weeks old, vs DMSO, FIG. 10A): the onset was significantly delayed | effect of extending the survival period (Survival) (male SOD1 G93A transgenic mice, 3 mM continuous i.c.v. by osmotic pump from 22 weeks old, vs DMSO, FIG. 10B): approximately 14%
